Entries after “also recorded” stand apart in the source; their conditions may differ. Where two headings read alike, the source gives them in different places.
Experiments:
[1] = system: human telomeric G-quadruplex DNA (F21T); test: FRET melting assay, human telomeric quadruplex; assay type: binding; conditions: for change in melting temperature F21T 1 uM: 1 uM ligand; for change in melting temperature F21T 2 uM: 2 uM ligand; for telomeric quadruplex stabilization (in words): FRET melting
Text: (§1) The ability of the naphthalene diimide compounds to stabilize DNA sequences was investigated using a fluorescence resonance energy transfer (FRET) assay modified to be used as a high-throughput screen in a 96-well format. Several quadruplex sequences were studied (the human telomeric G-quadruplex DNA sequence 5′-FAM-d(GGG[TTAGGG]3)-TAMRA-3′ and the duplex sequence 5′-FAM-dTATAGCTATA-HEG-TATAGCTATA-TAMRA-3′ (HEG linker: [(—CH2—CH2—O—)6])), as well as two overlapping sequences from the HSP90 promoter region (HSP90a and HSP90b):
(§2) The labelled oligonucleotides have attached to them the donor fluorophore FAM: 6-carboxyfluorescein and the acceptor fluorophore TAMRA: 6-carboxytetramethylrhodamine. The FRET probe sequences were diluted from stock to the correct concentration (400 nM) in a 60 mM potassium cacodylate buffer (pH 7.4) and then annealed by heating to 85° C. for 10 min, followed by cooling to room temperature in the heating block. The compound was stored as a 10 mM stock solution in DMSO; final solutions (at 2×concentration) were prepared using 10 mM HCl in the initial 1:10 dilution, after which 60 mM potassium cacodylate buffer (pH 7.4) was used in all subsequent steps. The maximum HCl concentration in the reaction volume (at a ligand concentration of 20 μM) is thus 200 μM, well within the range of the buffer used. Relevant controls were also performed to check for interference with the assay. 96-Well plates (MJ Research, Waltham, Mass.) were prepared by aliquoting 50 μl of the annealed DNA into each well, followed by 50 μl of the compound solutions. Measurements were made on a DNA Engine Opticon (MJ Research) with excitation at 450-495 nm and detection at 515-545 nm. Fluorescence readings were taken at intervals of 0.5° C. in the range 30-100° C., with a constant temperature being maintained for 30 s prior to each reading to ensure a stable value. Final analysis of the data was carried out using a script written in the program Origin 7.0 (OriginLab Corp., Northampton, Mass.). The advanced curve-fitting function in Origin 7.0 was used for calculation of ΔTm values. All determinations were performed in triplicate or better. Esds in ΔTm are ±0.1° C.
The ability of compounds 3a-h to stabilize a human telomeric quadruplex was assessed by a high-throughput FRET (Fluorescence Resonance Energy Transfer) melting technique. […] None of the furan tetrahydrofuran, pyranose or acyclic ether compounds has any effect on quadruplex or duplex stability.
(§3) The T-loop sequence represents duplex DNA.

[2] = system: 786-O (renal) cells; test: SRB growth inhibition assay, 96 hr exposure, 786-O; assay type: cell-based, human; conditions: SRB assay, 96 hr exposure
Description: (§4) Human cancer cell lines, MCF7 (breast), A549 (lung), Mia-PaCa2, PANC1 and HPAC (pancreatic), RCC4 and 786-0 renal, and the somatic human cell line WI-38 (lung fibroblast) were purchased from ATCC. Cell lines were maintained in appropriate medium supplemented with 10% foetal bovine serum (Invitrogen, UK), 2 mM L-glutamine (Invitrogen, Netherlands), and other components as specified by the suppliers. Cell lines were maintained at 37° C., 5% CO2 and routinely passaged. Drugs were dissolved in DMSO and filtered through 0.22 μm pore-size filter units before addition to cell line appropriate media. Cellular growth inhibition was measured using the sulforhodamine B (SRB) assay in 96 well plates as described previously.^1,2 Fifty percent inhibitory concentrations (IC50) were determined by taking the mean absorbance at 540 nm for each drug concentration expressed as a percentage of the absorbance of untreated control wells.
(§5) The anti-proliferative activity of the group of nine ND derivatives was assessed using the SRB assay following 96 h exposure to 2-fold serial dilutions of each compound (Table 2) in a panel of cancer cell lines together with a normal fibroblast line. […] In contrast the morpholine compounds all show sub-μM anti-proliferative activity in at least some of the cancer cell lines used and the two compounds 3d, 3h with n=3 —(CH2)n— linkers to the morpholine groups, show particularly potent activity in the Mia-PaCa2 and PANC1 pancreatic carcinoma and A549 lung adenocarcinoma cell lines (IC50 values of 10-20 nM).
(§6) Next a series of structural isomers were tested.

[3] = system: MCF-7 (breast) cells; test: SRB growth inhibition assay, 96 hr exposure, MCF-7; assay type: cell-based, human
Description: as §4, §5, §6

[4] = system: MiaPaCa2 (pancreatic) cells; test: SRB growth inhibition assay, MiaPaCa2; assay type: cell-based, human; conditions: SRB assay, 96 hr exposure
Description: as §4, §5
Dose-response curves were used to guide the choice of compound concentration and time-points for the array experiments (FIG. 2a). […] To explore this response continuum the transcriptional signature of cells exposed for 24 h to 20 nM, 40 nM, 80 nM concentrations of 3d, or solvent alone as control, was analysed as described in Materials and Methods.
as §6

[5] = system: RCC4 (renal) cells; test: SRB growth inhibition assay, 96 hr exposure, RCC4; assay type: cell-based, human
Description: as §4, §5, §6

[6] = system: HSP90b promoter quadruplex sequence; test: FRET melting assay, Hsp90B quadruplex; assay type: binding; conditions: for change in melting temperature Hsp90B 1 uM: 1 uM ligand; for change in melting temperature Hsp90B 2 uM: 2 uM ligand
Text: as §1
as §2, with “±0.1° C. […]” for “±0.1° C.”

[7] = system: A549 (lung) cells; test: SRB growth inhibition assay, 96 hr exposure, A549; assay type: cell-based, human
Description: as §4, §5, §6

[8] = system: duplex DNA (T-loop); test: FRET melting assay, duplex DNA; assay type: binding; conditions: for change in melting temperature Tloop 1 uM: 1 uM ligand; for change in melting temperature Tloop 2 uM: 2 uM ligand
Text: as §1, §2, §3

[9] = system: HSP90a promoter quadruplex sequence; test: FRET melting assay, Hsp90A quadruplex; assay type: binding; conditions: for change in melting temperature Hsp90A 1 uM: 1 uM ligand; for change in melting temperature Hsp90A 2 uM: 2 uM ligand
Text: as §1
as §2, with “±0.1° C. […]” for “±0.1° C.”

[10] = system: WI38 normal human fibroblast cells; test: SRB growth inhibition assay, 96 hr exposure, WI38; assay type: cell-based
Description: as §4
as §5, with “nM). […]” for “nM).”

[11] = system: Panc1 (pancreatic) cells; test: SRB growth inhibition assay, 96 hr exposure, Panc1; assay type: cell-based, human
Description: as §4, §5, §6

[12] = system: panel of cancer cell lines; test: SRB assay, panel of cancer cell lines and normal fibroblast line; assay type: cell-based, human; conditions: 96 h exposure; for IC50: Homo sapiens, Fibroblast, read-out: IC50 values across the cell line panel
Description: as §4, §5

SMILES | change in melting temperature F21T 1 uM [1] | change in melting temperature F21T 2 uM [1] | IC50 [2] [nM] | IC50 [3] [nM] | IC50 [4] [nM] | IC50 [5] [nM] | change in melting temperature Hsp90B 1 uM [6] | change in melting temperature Hsp90B 2 uM [6] | IC50 ([7]; 96 hr exposure) [nM] | change in melting temperature Tloop 1 uM [8] | change in melting temperature Tloop 2 uM [8] | change in melting temperature Hsp90A 1 uM [9] | change in melting temperature Hsp90A 2 uM [9] | IC50 [10] [nM] | IC50 ([11]; 96 hr exposure) [nM] | also measured
CN1CCN(CCN2C(=O)c3cc(NCCCN4CCOCC4)c4c5c(cc(NCCCN6CCOCC6)c(c35)C2=O)C(=O)N(CCN2CCN(C)CC2)C4=O)CC1 [SKM036] | 26 | 31 | 160 ± 21 | 21 ± 1 | 5 ± 1 | 300 ± 16 | 28 | 32 | 20 ± 1 | 2 | 8 | 33 | 36 | 180 ± 2 | 5 ± 1 | 
CN1CCN(CCCN2C(=O)c3cc(NCC4CCOCC4)c4c5c(cc(NCC6CCOCC6)c(c35)C2=O)C(=O)N(CCCN2CCN(C)CC2)C4=O)CC1 [SKM052] | <2 | 22 | 290 ± 2 | 510 ± 17 | 137 ± 31 | 2200 ± 15 | 3 | 23 | 460 ± 10 | 0 | 0 | 2 | 27 | 2800 ± 230 | 1100 ± 130 | 
CN1CCN(CCCNc2cc3c4c(c(NCCCN5CCN(C)CC5)cc5c4c2C(=O)N(CC2CCCO2)C5=O)C(=O)N(CC2CCCO2)C3=O)CC1 (racemic) [Compound 3a, 4,9-bis((3-(4-methylpiperazin-1-yl)propyl)amino)-2,7-bis((tetrahydrofuran-2-yl)methyl)benzo[lmn][3,8]phenanthroline-1,3,6,8(2H,7H)-tetraone] |  |  |  |  |  |  |  |  |  |  |  |  |  |  |  | anti-proliferative activity (in words) [12]: devoid of significant anti-proliferative activity in all except the Mia-PaCa2 and A549 lines
COCCCNc1cc2c3c(c(NCCCOC)cc4c3c1C(=O)N(CCCN1CCN(C)CC1)C4=O)C(=O)N(CCCN1CCN(C)CC1)C2=O [SKM022] | <2 | 16 | 16100 ± 630 | 17500 ± 980 | 7050 ± 830 | 7600 ± 10 | 22 | 26 | 5750 ± 510 | 0 | 0 | 22 | 24 | > 25000 | 2500 ± 340 | 
CN1CCN(CCCNc2cc3c4c(c(NCCCN5CCN(C)CC5)cc5c4c2C(=O)N(CCCN2CCOCC2)C5=O)C(=O)N(CCCN2CCOCC2)C3=O)CC1 [MM41] | 27 | 32 |  |  |  |  | 29 | 33 |  | 5 | 9 | 33 | 36 |  |  | IC50 ([2]; Homo sapiens, 786-0): 320 ± 10 nM; IC50 ([3]; Homo sapiens, MCF7): 70 ± 7 nM; IC50 ([4]; Homo sapiens, MIA PaCa-2): 10 ± 10 nM; IC50 ([5]; Homo sapiens, RCC4): 560 ± 50 nM; IC50 ([7]; Homo sapiens, A549, 96 hr exposure): 19 ± 5 nM; IC50 ([10]; Homo sapiens, WI-38): 230 ± 10 nM; IC50 ([11]; Homo sapiens, PANC-1, 96 hr exposure): 3 ± 0.5 nM
CN1CCN(CCCN2C(=O)c3cc(NCCCN4CCOCC4)c4c5c(cc(NCCCN6CCOCC6)c(c35)C2=O)C(=O)N(CCCN2CCN(C)CC2)C4=O)CC1 [SKM029] | 29 | 34 | 440 ± 70 | 14 ± 1 | 50 ± 2 | 610 ± 70 | 30 | 34 | 7 ± 1 | 5 | 9 | 34 | 36 | 300 ± 23 | 2 ± 1 | 
CN1CCN(CCCNc2cc3c4c(c(NCCCN5CCN(C)CC5)cc5c4c2C(=O)N(Cc2ccco2)C5=O)C(=O)N(Cc2ccco2)C3=O)CC1 [Compound 3b, 2,7-bis(furan-2-ylmethyl)-4,9-bis((3-(4-methylpiperazin-1-yl)propyl)amino)benzo[lmn][3,8]phenanthroline-1,3,6,8(2H,7H)-tetraone] |  |  |  |  |  |  |  |  |  |  |  |  |  |  |  | telomeric quadruplex stabilization (in words) [1]: low level of quadruplex binding; IC50 [12]: 1000 to 8000 nM
COCCCN1C(=O)c2cc(NCCCN3CCN(C)CC3)c3c4c(cc(NCCCN5CCN(C)CC5)c(c24)C1=O)C(=O)N(CCCOC)C3=O [Compound 3e, 2,7-bis(3-methoxypropyl)-4,9-bis((3-(4-methylpiperazin-1-yl)propyl)amino)benzo[lmn][3,8]phenanthroline-1,3,6,8(2H,7H)-tetraone] |  |  |  |  |  |  |  |  |  |  |  |  |  |  |  | telomeric quadruplex stabilization (in words) [1]: very slight effect; also recorded: low level of quadruplex binding; IC50 [12]: 1000 to 8000 nM
